Laboratory results as given in patent publication US8420824B2, “Substituted pyrazoles, compositions containing these, method of production and use” (Sanofi, priority 2006, dated 2013).
Where a name gives a salt, the structure may show the parent alone.

Columns and labels:
human KDR enzyme = target: T1, human KDR enzyme (Homo sapiens, UniProt P35968); test: in vitro test of phosphorylation of substrate with the enzyme KDR (scintillation technique); type: biochemical; conditions: Table 1; unit inferred; read-out: KDR (concentration that inhibits 50% of the kinase activity)
T1 construct: The cytoplasmic domain of the human KDR enzyme was cloned in the form of a GST fusion; GST; made in house; host or cells: SF21 insect cells (baculovirus, pFastBac)
Method: Determination of the Activity of the Compounds—Experimental Protocols 1. KDR
The inhibitory effect of the compounds is determined in an in vitro test of phosphorylation of substrate with the enzyme KDR via a scintillation technique (96-well plate, NEN).
The cytoplasmic domain of the human KDR enzyme was cloned in the form of a GST fusion in the pFastBac baculovirus expression vector. The protein was expressed in the SF21 cells and purified to about 60% homogeneity.
The KDR kinase activity is measured in 20 mM MOPS, 10 mM MgCl2, 10 mM MnCl2, 1 mM DTT, 2.5 mM EGTA, 10 mM b-glycerophosphate, pH=7.2, in the presence of 10 mM MgCl2, 100 μm Na3VO4, 1 mM NaF. 10 μl of the compound are added to 70 μl of kinase buffer containing 100 ng of KDR enzyme at 4° C. The reaction is initiated by adding 20 μl of solution containing 2 μg of substrate (SH2-SH3 fragment of PLCγ expressed in the form of a GST fusion protein), 2 μCi of γ^33P[ATP] and 2 μm of cold ATP. After incubation for 1 hour at 37° C., the reaction is stopped by adding 1 volume (100 μl) of 200 mM EDTA. The incubation buffer is removed, and the wells are washed three times with 300 μl of PBS. The radioactivity in each well is measured using a Top Count NXT radioactivity counter (Packard).
The background noise is determined by measuring the radioactivity in four different wells containing radioactive ATP and the substrate alone.
A total activity control is measured in four different wells containing all the reagents (γ^33P—[ATP], KDR and substrate PLCγ), but in the absence of compound.
The inhibition of the KDR activity with the compound of the invention is expressed as a percentage of inhibition of the control activity determined in the absence of compound.
Compound SU5614 (Calbiochem) (1 μM) is included in each plate as an inhibition control.

human Tie2 = target: T2, human Tie2 (Homo sapiens, UniProt Q02763); test: test of phosphorylation of PLC with Tie2 (GST-Tie2); type: biochemical; conditions: Table 1; unit inferred; read-out: Tie2 (concentration that inhibits 50% of the kinase activity)
T2 construct: amino acids of the intracellular domain 776-1124; made in house; host or cells: baculovirus expression (pFastBacGT)
Method: The coding sequence of human Tie2 corresponding to the amino acids of the intracellular domain 776-1124 was generated by PCR using the cDNA isolated from a human placenta as a model. This sequence was introduced into a pFastBacGT baculovirus expression vector in the form of a GST fusion protein.
The inhibitory effect of the molecules is determined in a test of phosphorylation of PLC with Tie2 in the presence of GST-Tie2 purified to about 80% homogeneity. The substrate is composed of the SH2-SH3 fragments of PLC expressed in the form of a GST fusion protein.
The kinase activity of Tie2 is measured in a MOPS 20 mM pH 7.2 buffer, containing 10 mM MgCl2, 10 mM MnCl2, 1 mM DTT, 10 mM of glycerophosphate. In a 96-well FlashPlate plate maintained on ice, a reaction mixture is deposited, composed of 70 μL of kinase buffer containing 100 ng of enzyme GST-Tie2 per well. Next, 10 μL of the test molecule diluted in DMSO to a maximum concentration of 10% are added. For a given concentration, each measurement is performed four times. The reaction is initiated by adding 20 μl of solution containing 2 μg of GST-PLC, 2 μm of cold ATP and 1 μCi of δ^33P[ATP]. After incubation for one hour at 37° C., the reaction is stopped by adding 1 volume (100 μl) of 200 mM EDTA. After removal of the incubation buffer, the wells are washed three times with 300 μL of PBS. The radioactivity is measured on a MicroBeta 1450 Wallac.
The inhibition of the Tie2 activity is calculated and expressed as a percentage of inhibition relative to the control activity determined in the absence of compound.

T2 sequence (Q02763 776-1124): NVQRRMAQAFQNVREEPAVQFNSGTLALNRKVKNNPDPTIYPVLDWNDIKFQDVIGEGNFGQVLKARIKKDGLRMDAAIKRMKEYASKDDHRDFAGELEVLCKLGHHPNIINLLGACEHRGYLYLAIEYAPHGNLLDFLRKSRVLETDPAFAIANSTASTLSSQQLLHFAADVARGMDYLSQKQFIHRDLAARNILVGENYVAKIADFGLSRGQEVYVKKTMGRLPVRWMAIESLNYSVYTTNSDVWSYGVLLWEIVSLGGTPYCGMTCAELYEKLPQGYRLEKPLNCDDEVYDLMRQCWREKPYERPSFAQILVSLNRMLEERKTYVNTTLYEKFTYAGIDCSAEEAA
T1 sequence (P35968 786-1356 limits assumed): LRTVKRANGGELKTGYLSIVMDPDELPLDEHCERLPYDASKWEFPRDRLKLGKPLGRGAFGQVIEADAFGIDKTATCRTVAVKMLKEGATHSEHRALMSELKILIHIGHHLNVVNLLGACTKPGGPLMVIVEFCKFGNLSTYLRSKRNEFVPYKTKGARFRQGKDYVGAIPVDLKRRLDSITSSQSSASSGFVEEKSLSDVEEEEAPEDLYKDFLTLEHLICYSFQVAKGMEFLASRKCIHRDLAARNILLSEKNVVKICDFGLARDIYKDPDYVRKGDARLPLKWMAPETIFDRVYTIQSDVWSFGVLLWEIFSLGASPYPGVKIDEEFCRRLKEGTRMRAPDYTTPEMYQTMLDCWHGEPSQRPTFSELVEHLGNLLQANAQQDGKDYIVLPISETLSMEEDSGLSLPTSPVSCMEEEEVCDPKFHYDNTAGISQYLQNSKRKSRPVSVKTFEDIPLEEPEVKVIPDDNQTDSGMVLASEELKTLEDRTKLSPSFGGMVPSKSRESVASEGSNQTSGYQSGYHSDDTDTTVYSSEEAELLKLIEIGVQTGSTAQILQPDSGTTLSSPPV

| Compound | IC50 (human KDR enzyme) | IC50 (human Tie2) |
| --- | --- | --- |
| NC(=O)c1n[nH]cc1NCc1cccc(NC(=O)Nc2cc(C(F)(F)F)ccc2F)c1 [Example 2a, 4-{[3-({[2-fluoro-5-(trifluoromethyl)phenyl]carbamoyl}amino)benzyl]-amino}-1H-pyrazole-3-carboxamide trifluoroacetate] | 8 nM | 20 nM |
| COC(=O)c1cccc(NC(=O)Nc2cccc(CNc3c[nH]nc3C(N)=O)c2)c1 [Example 9, Methyl 3-{[(3-{[(3-carbamoyl-1H-pyrazol-4-yl)-amino]methyl}phenyl)-carbamoyl]amino}benzoate trifluoroacetate] | 21.8 nM | 4510 nM |
| COC(=O)c1n[nH]cc1NCc1cccc(NC(=O)Nc2cc(C(F)(F)F)ccc2F)c1 [Example 32, Methyl 4-{[3-({[2-fluoro-5-(trifluoromethyl)phenyl]carbamoyl}amino)-benzyl]amino}-1H-pyrazole-3-carboxylate trifluoroacetate] | 64.1 nM | 1000 nM |

Next, values leading:

| IC50 (human KDR enzyme) | IC50 (human Tie2) | Compound |
| --- | --- | --- |
| 4.5 nM | 72.7 nM | NC(=O)c1n[nH]cc1NCc1cccc(NC(=O)Nc2cc(F)cc(C(F)(F)F)c2)c1 [Example 7, 4-{[3-({[3-fluoro-5-(trifluoromethyl)phenyl]carbamoyl}amino)benzyl]-amino}-1H-pyrazole-3-carboxamide trifluoroacetate] |
| 11.8 nM | 1460 nM | COc1cc(NC(=O)Nc2cccc(CNc3c[nH]nc3C(N)=O)c2)cc(OC)c1 [Example 13, 4-[(3-{[(3,5-dimethoxyphenyl)carbamoyl]amino}benzyl)amino]-1H-pyrazole-3-carboxamide trifluoroacetate] |
